One experiment addresses BIR3 domain of rat XIAP (Rattus norvegicus, UniProt Q9R0I6). The experiment can be described thus: Fluorescence polarization assay, binding to BIR3 from rat XIAP. On the technique in general: In fluorescence polarisation assays a small probe gives low polarisation when free and higher when bound to something large.
Experiment [1] concerns the target T1, BIR3-mediated Caspase-9 inhibition (UniProt Q9R0I6).
T1 construct: Nothing is printed for this assay
The experiment can be described thus: Caspase-9 rescue assay (relief of BIR3-mediated Caspase-9 inhibition). It is filed as biochemical, human Caspase-9; Rat or Chicken BIR3. To be noted: average EC50, substrate Ac-LEHD-amc, pH 6.5. On the procedure:
Additionally the compounds and compositions can be evaluated for their ability to achieve relief of BIR3-mediated Caspase-9 inhibition by measuring Caspase-9 reactivation. The fluorogenic substrate Ac-LEHD-7-amido-4-methylcoumarin is used in these methods. EC50 values of tested BIR3 inhibitors or Caspase-9 rescuers is calculated from the percentage of Caspase-9 reactivation in the mixtures containing serially diluted concentrations of tested compound. Typically, 10-point curves are generated for such EC50 determination.
Relief of BIR3-mediated Caspase-9 inhibition by BIR3 inhibitors was assayed by measuring Caspase-9 reactivation using the fluorogenic substrate Ac-LEHD-7-amido-4-methylcoumarin. A truncated form of human Caspase-9 that lacks the N-terminal Caspase recruitment domain (EPro-Caspase-9 or p35/p12) was used in the assay. This form of the enzyme has the full catalytic activity and the same substrate specificity as the full-length protein in the Apaf-1/Cytochrome C/dATP/Caspase-9 reconstituted system. Rat or Chicken BIR3 was used in this assay. […] This mixture was incubated for 40 min to allow equilibration at 25° C., and the assay progression was subsequently followed by monitoring the formation of fluorescent 7-amido-4-methylcoumarin over time at 460 nm using an excitation wavelength of 360 nm. […] EC50 values of tested BIR3 inhibitors or Caspase-9 rescuers were calculated from the percentage of Caspase-9 reactivation in the mixtures containing serially diluted concentrations of tested compound.

Counter-ions that a name gives are not always drawn. Like-named read-outs stand apart in the source and are kept apart here.

Chain of BIR3 domain of rat XIAP (Q9R0I6 241-355): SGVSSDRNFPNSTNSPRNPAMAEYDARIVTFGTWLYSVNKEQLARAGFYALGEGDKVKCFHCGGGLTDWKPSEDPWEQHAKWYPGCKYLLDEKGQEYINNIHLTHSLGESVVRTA
Experimental for BIR3 domain of rat XIAP: In fluorescence polarization assays a fluorescent probe is used. The binding affinity of compounds to BIR3 is measured by competitive displacement of a fluorescent probe using fluorescence polarization anisotropy. […] In other embodiments, the probe used is 6-(6-Hydroxy-3-oxo-3H-xanthen-9-yl)-N-(5-(2-methylamino-propionylamino)-6-oxo-6-[4-(1,2,3,4-tetrahydro-naphthalen-1-ylcarbamoyl)-thiazolidin-3-yl]-hexyl)-isophthalamic acid.
The binding affinity of compounds provided herein for rat BIR3 was measured by competitive displacement of a fluorescent probe using fluorescence polarization anisotropy. […] Control conditions were set up on each plate and include free probe 1 alone (5 nM), fully bound probe (5 μM BIR3+5 nM probe 1) and binding buffer blank. The-EC50 of binding was computed from a 4-parameter fit of the measured anisotropies using the SoftMax Pro 4.6 software package (Molecular Dynamics, Sunnyvale, Calif.).
Alternatively, probe 1 was substituted with probe 2: 6-(6-Hydroxy-3-oxo-3H-xanthen-9-yl)-N-{5-(2-methylamino-propionylamino)-6-oxo-6-[4-(1,2,3,4-tetrahydro-naphthalen-1-ylcarbamoyl)-thiazolidin-3-yl]-hexyl}-isophthalamic acid, for rat BIR3 and the concentrations of assay components changed. […] Controls were adjusted accordingly.

In general, EC50 refers to the midpoint of the concentration-response curve. With `CNC(C)C(=O)NC(C(=O)N(CCCCCNC(=O)OCc1ccccc1)CC(=O)NC1CCCc2ccccc21)C(C)C` (stereo not shown) [(5-{[3-Methyl-2-(2-methylamino-propionylamino)-butyryl]-[(1,2,3,4-tetrahydro-naphthalen-1-ylcarbamoyl)-methyl]-amino}-pentyl)-carbamic acid benzyl ester], the half-maximal effective concentration (EC50) on BIR3 domain of rat XIAP is below 1000 nM; in experiment [1] it was 1000 to 10000 nM.
On the same counts, the results for `CNC(C)C(=O)NC(C(=O)N1CSC(C)(C)C1C(=O)NC1CCCc2ccccc21)C(C)C` (stereo not shown) [5,5-Dimethyl-3-[3-methyl-2-(2-methylamino-propionylamino)-butyryl]-thiazolidine-4-carboxylic acid (1,2,3,4-tetrahydro-naphthalen-1-yl)-amide] are below 1000 nM and below 1000 nM.
For the compound `CN[C@@H](C)C(=O)N[C@H](C(=O)N(C)[C@@H](CCCNC(=N)NS(=O)(=O)c1ccc(C)cc1)C(=O)N[C@@H]1CCCc2ccccc21)C(C)C` [(S)-2-((S)-N,3-dimethyl-2-((S)-2-(methylamino)propanamido)butanamido)-N-((R)-1,2,3,4-tetrahydronaphthalen-1-yl)-5-(3-Htosylguanidino)pentanamide; 2,2,2-trifluoroacetic acid salt], the EC50 on BIR3 domain of rat XIAP (read-out: EC50 for binding to BIR3, average EC50, BIR3 domain of rat XIAP, competitive displacement of fluorescent probe) is below 1000 nM; in experiment [1], below 1000 nM.
In the case of `CNC(C)C(=O)NC(C(=O)NC(CCC(=O)OCc1ccccc1)C(=O)NC1CCCc2ccccc21)C(C)C` (stereo not shown) [4-[3-Methyl-2-(2-methylamino-propionylamino)-butyrylamino]-4-(1,2,3,4-tetrahydro-naphthalen-1-ylcarbamoyl)-butyric acid benzyl ester], the 50% effective concentration (EC50) was below 1000 nM on BIR3 domain of rat XIAP and 1000 to 10000 nM in experiment [1].
On the same counts, the results for `CNC(C)C(=O)NC(C(=O)N1Cc2ccccc2CC1C(=O)NC(c1ccccc1)c1ccccc1)C(C)C` (stereo not shown) [2-[3-Methyl-2-(2-methylamino-propionylamino)-butyryl]-1,2,3,4-tetrahydro-isoquinoline-3-carboxylic acid benzhydryl-amide] are below 1000 nM and 1000 to 10000 nM.
Regarding `CCCCCN1C(=O)CCC(NC(=O)C(C)NC)C(=O)N1CC(=O)NC1CCCc2ccccc21` (stereo not shown) [N-{3,7-Dioxo-1-pentyl-2-[(1,2,3,4-tetrahydro-naphthalen-1-ylcarbamoyl)-methyl]-[1,2]diazepan-4-yl}-2-methylamino-propionamide], the EC50 is 1000 to 10000 nM at BIR3 domain of rat XIAP and above 10000 nM in experiment [1].
For the compound `CNC(C)C(=O)NC(C(=O)N1CCCC1C(=O)NN(C)c1ccccc1)C(C)(C)C` (stereo not shown) [N-{2,2-Dimethyl-1-[2-(N′-methyl-N′-phenyl-hydrazinocarbonyl)-pyrrolidine-1-carbonyl]-propyl}-2-methylamino-propionamide], the 50% effective concentration (EC50) on BIR3 domain of rat XIAP was below 1000 nM; in experiment [1], 1000 to 10000 nM.
On the same counts, the results for `CCCCS(=O)(=O)NCCCCC(NC(=O)C(NC(=O)C(C)NC)C(C)C)C(=O)NC1CCCc2ccccc21` (stereo not shown) [6-(Butane-1-sulfonylamino)-2-[3-methyl-2-(2-methylamino-propionylamino)-butyrylamino]-hexanoic acid (1,2,3,4-tetrahydro-naphthalen-1-yl)-amide] are below 1000 nM and below 1000 nM.
Consider `CCCNC(C)C(=O)NC(C(=O)N1CCCC1C(=O)NC1CCCc2ccccc21)C(C)(C)C` (stereo not shown) [1-[3,3-Dimethyl-2-(2-propylamino-propionylamino)-butyryl]-pyrrolidine-2-carboxylic acid (1,2,3,4-tetrahydro-naphthalen-1-yl)-amide], for which the concentration giving a half-maximal response (EC50) on BIR3 domain of rat XIAP was below 1000 nM; in experiment [1] it was 1000 to 10000 nM.
On the same counts, the results for `CNC(C)C(=O)NC(C(=O)N1Cc2ccccc2CC1C(=O)NC(Cc1ccccc1)Cc1ccccc1)C(C)C` (stereo not shown) [2-[3-Methyl-2-(2-methylamino-propionylamino)-butyryl]-1,2,3,4-tetrahydro-isoquinoline-3-carboxylic acid (1-benzyl-2-phenyl-ethyl)-amide] are below 1000 nM and 1000 to 10000 nM.
On the same counts, the results for `CC(C)CNC(C)C(=O)NC(C(=O)N1CCCC1C(=O)NC1CCCc2ccccc21)C(C)(C)C` (stereo not shown) [1-[2-(2-Isobutylamino-propionylamino)-3,3-dimethyl-butyryl]-pyrrolidine-2-carboxylic acid (1,2,3,4-tetrahydro-naphthalen-1-yl)-amide] are below 1000 nM and 1000 to 10000 nM.
On the same counts, the results for `CNC(C)C(=O)NC(C(=O)NC(CCCCNS(=O)(=O)c1ccc(OC)cc1)C(=O)NC1CCCc2ccccc21)C(C)C` (stereo not shown) [6-(4-Methoxy-benzenesulfonylamino)-2-[3-methyl-2-(2-methylamino-propionylamino)-butyrylamino]-hexanoic acid (1,2,3,4-tetrahydro-naphthalen-1-yl)-amide] are below 1000 nM and below 1000 nM.
`CNC(C)C(=O)NC(C(=O)NC(CCCCNC(=O)OCc1ccccc1Cl)C(=O)NC1CCCc2ccccc21)C(C)C` (stereo not shown) [[5-[3-Methyl-2-(2-methylamino-propionylamino)-butyrylamino]-5-(1,2,3,4-tetrahydro-naphthalen-1-ylcarbamoyl)-pentyl]-carbamic acid 2-chloro-benzyl ester]: the EC50 (at BIR3 domain of rat XIAP; in experiment [1]) was below 1000 nM each time.
For the compound `CN[C@@H](C)C(=O)N[C@H]1CCCC2CC[C@@H](C(=O)N[C@@H]3CCCc4ccccc43)N2C1=O` (stereo partly shown) [6-(2-Methylamino-propionylamino)-5-oxo-octahydro-pyrrolo[1,2-a]azepine-3-carboxylic acid (1,2,3,4-tetrahydro-naphthalen-1-yl)-amide], the 50% effective concentration (EC50) (at BIR3 domain of rat XIAP; in experiment [1]) was below 1000 nM in each case.
On to `CNC(C)C(=O)NC(C(=O)NC(CCN)C(=O)NC1CCCc2ccccc21)C(C)C` (stereo not shown) [N-[3-Amino-1-(1,2,3,4-tetrahydro-naphthalen-1-ylcarbamoyl)-propyl]-3-methyl-2-(2-methylamino-propionylamino)-butyramide], for which the EC50 was below 1000 nM on BIR3 domain of rat XIAP and 1000 to 10000 nM in experiment [1].
On the same counts, the results for `CNC(C)C(=O)NC(C(=O)NC(CCOCc1ccccc1)C(=O)NC1CCCc2ccccc21)C(C)C` (stereo not shown) [N-[3-Benzyloxy-1-(1,2,3,4-tetrahydro-naphthalen-1-ylcarbamoyl)-propyl]-3-methyl-2-(2-methylamino-propionylamino)-butyramide] are below 1000 nM and 1000 to 10000 nM.
On the same counts, the results for `CNC(C)C(=O)NC(C(=O)NC(CCCCNC(C)=O)C(=O)NC1CCCc2ccccc21)C(C)C` (stereo not shown) [6-Acetylamino-2-[3-methyl-2-(2-methylamino-propionylamino)-butyrylamino]-hexanoic acid (1,2,3,4-tetrahydro-naphthalen-1-yl)-amide] are below 1000 nM and 1000 to 10000 nM.
Regarding `CNC(C)C(=O)NC(C(=O)NC(CCCCNS(=O)(=O)C(F)(F)F)C(=O)NC1CCCc2ccccc21)C(C)C` (stereo not shown) [2-[3-Methyl-2-(2-methylamino-propionylamino)-butyrylamino]-6-trifluoromethanesulfonylamino-hexanoic acid (1,2,3,4-tetrahydro-naphthalen-1-yl)-amide], the EC50 is below 1000 nM at BIR3 domain of rat XIAP and above 10000 nM in experiment [1].
As to `CNC(C)C(=O)NC(C(=O)N1CSCC1C(=O)NN(c1ccccc1)c1ccccc1)C(C)C` (stereo not shown) [N-{1-[4-(N′,N′-Diphenyl-hydrazinocarbonyl)-thiazolidine-3-carbonyl]-2-methyl-propyl}-2-methylamino-propionamide], the EC50 at BIR3 domain of rat XIAP was below 1000 nM; in experiment [1], 1000 to 10000 nM.
Take `CNC(C)C(=O)NC(C(=O)NC(CCCCNS(=O)(=O)c1ccc([N+](=O)[O-])cc1)C(=O)NC1CCCc2ccccc21)C(C)C` (stereo not shown) [2-[3-Methyl-2-(2-methylamino-propionylamino)-butyrylamino]-6-(4-nitro-benzenesulfonylamino)-hexanoic acid (1,2,3,4-tetrahydro-naphthalen-1-yl)-amide]: the 50% effective concentration (EC50) (on BIR3 domain of rat XIAP; in experiment [1]) was below 1000 nM throughout.
As for `CN[C@@H](C)C(=O)N[C@H]1CCCN2CC[C@@H](C(=O)N[C@@H]3CCCc4ccccc43)N2C1=O` [8-(2-Methylamino-propionylamino)-9-oxo-hexahydro-pyrazolo[1,2-a][1,2]diazepine-1-carboxylic acid (1,2,3,4-tetrahydro-naphthalen-1-yl)-amide], the EC50 on BIR3 domain of rat XIAP was below 1000 nM; in experiment [1], 1000 to 10000 nM.
On the same counts, the results for `CNC(C)C(=O)NC(C(=O)N1CSCC1C(=O)NC(c1ccccc1)c1ccccc1)C(C)C` (stereo not shown) [3-[3-Methyl-2-(2-methylamino-propionylamino)-butyryl]-thiazolidine-4-carboxylic acid benzhydryl-amide] are below 1000 nM and below 1000 nM.
For `CNC(C)C(=O)NC(C(=O)NC(CCO)C(=O)NC1CCCc2ccccc21)C(C)C` (stereo not shown) [N-[3-Hydroxy-1-(1,2,3,4-tetrahydro-naphthalen-1-ylcarbamoyl)-propyl]-3-methyl-2-(2-methylamino-propionylamino)-butyramide], the EC50 at BIR3 domain of rat XIAP is below 1000 nM; in experiment [1] it was 1000 to 10000 nM.

Source of the values: patent US20100190688A1, “Tetrapeptide analogs” (priority 2004, published 2010).
